The results in this text go back to patent publication US9611286B2, “Ruthenium carbon monoxide releasing molecules and uses thereof” (Alfama, Inc., priority 2011, dated 2017).

The nature of data set [1]: Quantification of Ru in tissues (bio-distribution). Particulars: liver, kidney, spleen, lung and brain. The protocol:
Tricarbonyldichloro(methylthiogalactopyranoside) Ru(II) [Ru(CO)3Cl2(Gal-S-Me)], also referred to herein as Compound 1, was prepared by reacting CORM-2 with methylthiogalactopyranoside (Gal-S-Me) as described herein (see FIG. 2a and Materials and Methods section). The bio-distribution of Compound 1 in tissues was assessed by quantifying the levels of Ru and CO in the host by the method of Vreman et al., Anal Biochem (2005) 341:280-9. Liver, kidney, spleen, lung and brain tissues of non-infected mice (NI) were analyzed one hour after administration of Compound 1 and the control molecule, Compound 2 (FIG. 2b). […] The spleen is an organ that plays a crucial role in erythrophagocytosis, process important for red blood cell turnover, and recycling of iron. Erythrocytes are hydrolyzed by splenic macrophages, where the degradation of hemoglobin occurs, haem is release, and is catabolized by heme oxygenase-1 into biliverdin, carbon monoxide and ferrous iron (Fe^2+).
The tissue samples were weighed and dried at 80° C. overnight followed by 2 or more hours at 120° C. […] The Ru content was analyzed by an inductively coupled plasma-atomic emission spectrometer (ICP-AES) (model Ultima-Horiba Jobin Yvon, Longjumeau, France) using an external Ru standard method.

Data set [2] has as its system Myoglobin (Mb) from equine skeletal muscle. Kind of data set: Deoxy-myoglobin (Mb) carbonylation assay, CO release. The data set is classed as biochemical. The conditions noted are these: after 15 minutes of incubation with deoxy-Mb, PBS pH 7.4. How it is done:
The CO donation capacity of Compound 1 by a deoxy-myoglobin (Mb) carbonylation assay was then evaluated (see, e.g., Clark et al., Am J Pathol (1992) 140:325-336).
The Mb assay was performed as described in Clark et al., Circ. Res. (2003) 93:2-8. A stock solution of Myoglobin (Mb) from equine skeletal muscle was prepared by dissolving the protein in PBS7.4. From this solution aliquots were taken to a cuvette (final concentration between ca. 60 μM) and Na2S2O4 in PBS, pH 7.4 (10 mg/mL solution; 0.1% final concentration) was added to convert met-Mb into deoxy-Mb. The reactions were done by mixing in the same cuvette and by this order, the Mb stock solution, the Na2S2O4 solution, a calculated amount of a solution of Compound I and adding PBS to obtain the desired final volume. […] Two controls were done in duplicate, the negative control (0% CO-Mb), a deoxy-Mb solution and the positive control (100% CO-Mb), obtained by bubbling pure CO gas into the deoxy-Mb solution for 10-15 min. The experimental spectrum was fitted as a weighted sum of the deoxy-Mb and the CO-Mb spectra. […] The absorbance spectrum was converted into a percentage of CO-Mb and the amount of CO liberated was calculated as molar equivalents of CO based on the initial concentration of Compound I (see FIG. 10).

For data set [3], the system named is P. falciparum 3D7. Kind of data set: In vitro replication of P. falciparum 3D7. The conditions noted are these: 48 h. The data set is classed as cell-based, Plasmodium falciparum. The protocol:
The data led the inventors to wonder whether Compound 1 could have a direct anti-parasitic effect on P. berghei ANKA and P. falciparum parasites. To this end, the effect of Compound 1 and the anti-malarial chloroquine (CQ) was monitored on the in vitro replication of P. falciparum 3D7 isolate and P. berghei ANKA for 48 h and 24 h, respectively.

Data set [4] in a line: BBB disruption by Evans blue accumulation in brain parenchyma. The data set is classed as in vivo, C57BL/6 mice. Particulars: when control mice showed signs of ECM.
The subject of data set [5] is VEGF. The data set can be described thus: VEGF protein levels in plasma (ELISA), M-AALI model. The data set is classed as in vivo. Particulars: infected DBA/2 mice. The protocol:
Mouse VEGF in plasma samples was determined using a commercial ELISA kit (R&D Systems) following the manufacturer's instructions. The group classification was only performed by the end of each experiment after determining the cause of death.
For orientation: In an ELISA, binding on a coated surface is turned into a signal by an enzyme label.

For data set [6], the system named is P. berghei ANKA GFP. Kind of data set: Adjunctive/adjuvant therapy with artesunate after onset of ECM. The data set is classed as in vivo, C57BL/6 mice. The conditions noted are these: during administration of AS, between days 5 and 6. The protocol: Thus, the inventors decided to test Compound 1 as an adjunctive and adjuvant therapy during the acute phase of ECM. […] Therefore, the inventors assessed the combination of Compound 1 and AS on parasite clearance and clinical recovery from ECM. Two AS and Compound 1 combinations were tested: (i) Adjunctive therapy: AS and Compound 1 were administered concomitantly for 2 days after the onset of CM followed by a 3-day treatment with Compound 1 alone, or (ii) Adjuvant therapy: AS was administered on the first 2 days after CM onset followed by Compound 1 administration for 3 more days.
In order to evaluate the clinical presentation of experimental cerebral malaria, a classification was used in clinical stages from 0 to 4 (see, e.g., Bienvenu et al., Acta Trop (2008) 106:104-8; Franklin et al., Proc Natl Acad Sci USA (2011) 108:3689-94). Briefly, stage 0 indicates no detectable clinical symptoms, stage 1, ruffled fur; stage 2, ruffled fur and unbalancing; stage 3, limb paralysis and respiratory distress and stage 4, convulsions, coma or death. The mice were clinically classified before and after the treatment to evaluate the clinical recovery.
CORM-2 (Sigma-Aldrich) and Compound 2 were solubilized using 10% dimethyl sulfoxide (DMSO; Sigma-Aldrich) in PBS. CORM-3 and Compound 1 were solubilized in PBS (lx). CORM-2 solution (20 mg/kg of body weight) was administered intravenously (i.v.) according to the chosen schedules. […] As vehicle control, we used a solution of 10% DMSO in PBS administered i.v. The concentrations of CORM-2 used in the present study were based on previous reports (see, e.g., Chen et al. Am. J. Pathol. (2009) 175:422-429; Sun et al., World. J. Gastroenterol. (2008) 14:547-553). Artesunate is presented as a powder of artesunic acid. Artesunate (AS) solution was prepared by dissolving 60 mg of anhydrous artesunic acid in 1 ml of sodium bicarbonate (5%) to form sodium artesunate and then diluted in 5 ml of NaCl (0.9%). An AS solution (i.p.) was administered at 40 mg/Kg/day, as described previously (see, e.g., Bienvenu, Acta Trop (2008) 106:104-108). The AS treatment was started when the infected non-treated mice presented the clinical stage 1 for experimental cerebral malaria.

SMILES strings stand for the structures. Entries after “also recorded” stand apart in the source; their conditions may differ.

For `C[SH]([C@@H]1OC(CO)[C@H](O)[C@H](O)C1O)[Ru]([Cl])([Cl])([CH]=O)([CH]=O)[CH]=O` (stereo partly drawn) [Compound 1, Tricarbonyldichloro(methylthiogalactopyranoside) Ru(II)], the “Ru distribution in organs” value in data set [1] is on record as “marked affinity for the liver; also recorded: No signs of ruthenium are found in the brain”. In data set [2], the “CO transferred to Mb” value was “approximately 1 equivalent of CO”. In addition, the “inhibition of in vitro growth” value in data set [3] is on record as “does not inhibit in vitro growth”. In addition, in data set [4], the BBB disruption result is reported as “did not show any evidence of BBB disruption”. The “VEGF levels in plasma” value in data set [5] is “significantly lower”. The “interference with the anti-malarial action of AS” value in data set [6] is on record as “did not interfere with the anti-malarial action of AS in vivo”.
